Measurements taken from patent US11524966B1 (Valo Early Discovery, Inc., priority 2017, dated 2022).

molecular target: T1, USP28 (His-tagged USP28-FL-mammalian) (Homo sapiens, UniProt Q96RU2); assay: Ubiquitin-Rhodamine 110 Assay for USP28 Activity, Example A-1(a); type: biochemical; settings: Ubiquitin-Rhodamine 110 assay, Example A-1(a); read-out: USP28 A-1(a) IC50 range
T1 construct: Expression of USP28 (1-1077)-TEV-6*His (pTT5 vector); made in house; host or cells: Expi293f cells (pTT5 vector)
T1 sequence (Q96RU2 1-1077): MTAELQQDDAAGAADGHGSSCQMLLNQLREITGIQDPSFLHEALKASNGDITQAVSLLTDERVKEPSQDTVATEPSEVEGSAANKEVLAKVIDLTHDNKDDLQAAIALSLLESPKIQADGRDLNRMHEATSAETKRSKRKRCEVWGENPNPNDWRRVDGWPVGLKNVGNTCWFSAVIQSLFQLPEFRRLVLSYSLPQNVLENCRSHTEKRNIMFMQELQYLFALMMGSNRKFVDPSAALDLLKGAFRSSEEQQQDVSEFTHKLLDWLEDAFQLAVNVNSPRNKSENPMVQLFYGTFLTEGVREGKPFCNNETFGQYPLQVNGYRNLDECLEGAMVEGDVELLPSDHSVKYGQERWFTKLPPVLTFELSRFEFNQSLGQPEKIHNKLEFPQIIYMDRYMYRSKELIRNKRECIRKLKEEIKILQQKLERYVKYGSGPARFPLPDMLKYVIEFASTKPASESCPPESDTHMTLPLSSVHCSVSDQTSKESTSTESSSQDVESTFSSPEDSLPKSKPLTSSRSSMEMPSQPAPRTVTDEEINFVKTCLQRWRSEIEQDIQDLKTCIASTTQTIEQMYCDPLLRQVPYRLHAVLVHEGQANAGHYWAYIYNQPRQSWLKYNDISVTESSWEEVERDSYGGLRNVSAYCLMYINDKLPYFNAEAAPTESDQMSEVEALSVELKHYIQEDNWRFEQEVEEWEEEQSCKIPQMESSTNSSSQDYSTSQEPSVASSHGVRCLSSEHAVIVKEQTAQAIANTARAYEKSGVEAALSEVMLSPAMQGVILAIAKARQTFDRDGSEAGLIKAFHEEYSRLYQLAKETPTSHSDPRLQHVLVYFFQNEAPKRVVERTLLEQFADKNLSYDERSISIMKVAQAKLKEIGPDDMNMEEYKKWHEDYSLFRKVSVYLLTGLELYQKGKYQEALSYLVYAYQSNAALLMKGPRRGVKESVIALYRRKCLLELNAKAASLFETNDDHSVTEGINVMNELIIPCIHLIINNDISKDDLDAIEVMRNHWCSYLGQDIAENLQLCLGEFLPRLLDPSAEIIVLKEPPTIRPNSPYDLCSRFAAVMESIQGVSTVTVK
Procedure, shortened: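 IC50 from 4-parameter logistic fit of percent inhibition versus no-enzyme and DMSO controls; compounds 25 μM to 1.3 nM, 3-fold. Ub-Rh110 cleavage (25 nM, below Km) by […] mammalian-expressed USP28-FL-His ran 45 min at room temperature, stopped with 10 mM citric acid, read ex 485/em 535.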

**Q.** How did the IC50 turn out when `CO[C@H]1CN(c2cc3c(cc2F)C[C@@H](NC(=O)c2sc4nc(C)ccc4c2N)CO3)C[C@@H]1N` [Example 94, 3-amino-N-[(3R)-7-[(3S,4S)-3-amino-4-methoxypyrrolidin-1-yl]-6-fluoro-3,4-dihydro-2H-1-benzopyran-3-yl]-6-methylthieno[2,3-b]pyridine-2-carboxamide] was run?
**A.** 1 to 50 nM

**Q.** For `Cc1ccc2c(N)c(C(=O)N[C@H]3COc4c(C#N)c(N5CC6CCC(C5)N6)cc(F)c4C3)sc2n1` [Example 95, 3-amino-N-[(3R)-8-cyano-7-{3,8-diazabicyclo[3.2.1]octan-3-yl}-5-fluoro-3,4-dihydro-2H-1-benzopyran-3-yl]-6-methylthieno[2,3-b]pyridine-2-carboxamide], which IC50 is on record?
**A.** 1 to 50 nM

**Q.** Which IC50 does the source give for `Cc1ccc2c(N)c(C(=O)N[C@H]3COc4c(C#N)c(N5CC6CNCC(C5)O6)cc(F)c4C3)sc2n1` [Example 96, 3-amino-N-[(3R)-8-cyano-5-fluoro-7-{9-oxa-3,7-diazabicyclo[3.3.1]nonan-3-yl}-3,4-dihydro-2H-1-benzopyran-3-yl]-6-methylthieno[2,3-b]pyridine-2-carboxamide] here?
**A.** 1 to 50 nM

**Q.** Which IC50 does the source give for `Cc1cnc2c(N)c(C(=O)N[C@H]3COc4cc(N5CC6CCC(C5)N6)c(F)c(F)c4C3)sc2n1` [Example 97, 7-amino-N-[(3R)-7-{3,8-diazabicyclo[3.2.1]octan-3-yl]-5,6-difluoro-3,4-dihydro-2H-1-benzopyran-3-yl]-3-methylthieno[2,3-b]pyrazine-6-carboxamide] here?
**A.** 1 to 50 nM

**Q.** `Cc1nc2sc(C(=O)N[C@H]3COc4c(F)c(N5CC6CCC(C5)N6)cc(F)c4C3)c(N)c2s1` [Example 98, 6-amino-N-[(3R)-7-{3,8-diazabicyclo[3.2.1]octan-3-yl}-5,8-difluoro-3,4-dihydro-2H-1-benzopyran-3-yl]-2-methylthieno[2,3-d][1, 3]thiazole-5-carboxamide] was tested. Which IC50 did it give?
**A.** 1 to 50 nM

**Q.** With `Cc1ccc2c(N)c(C(=O)N[C@H]3CCc4c(ccc(N5CC6CNCC(C5)O6)c4F)C3)sc2n1` [Example 99, 3-amino-N-[(2S)-5-fluoro-6-{9-oxa-3,7-diazabicyclo[3.3.1]nonan-3-yl}-1,2,3,4-tetrahydronaphthalen-2-yl]-6-methylthieno[2,3-b]pyridine-2-carboxamide] as the compound, how does the IC50 read?
**A.** 1 to 50 nM

**Q.** Which IC50 does the source give for `Cc1ccc2c(N)c(C(=O)N[C@@H]3CCc4c(ccc(N5CC6CNCC(C5)O6)c4F)C3)sc2n1` [Example 100, 3-amino-N-[(2R)-5-fluoro-6-{9-oxa-3,7-diazabicyclo[3.3.1]nonan-3-yl}-1,2,3,4-tetrahydronaphthalen-2-yl]-6-methylthieno[2,3-b]pyridine-2-carboxamide] here?
**A.** 50 to 200 nM

**Q.** Which IC50 does the source give for `Cc1ccc2c(N)c(C(=O)N[C@H]3CCc4cc(N5CC6CNCC(C5)O6)c(F)cc4C3)sc2n1` [Example 101, 3-amino-N-[(2S)-7-fluoro-6-{9-oxa-3,7-diazabicyclo[3.3.1]nonan-3-yl}-1,2,3,4-tetrahydronaphthalen-2-yl]-6-methylthieno[2,3-b]pyridine-2-carboxamide] here?
**A.** 1 to 50 nM

**Q.** `Cc1ccc2c(N)c(C(=O)N[C@H]3CCc4c(ccc(N5CC6CNCC(C5)O6)c4C#N)C3)sc2n1` [Example 102, 3-amino-N-[(2S)-5-cyano-6-{9-oxa-3,7-diazabicyclo[3.3.1]nonan-3-yl}-1,2,3,4-tetrahydronaphthalen-2-yl]-6-methylthieno[2,3-b]pyridine-2-carboxamide] was tested. Which IC50 did it give?
**A.** 1 to 50 nM

**Q.** For `Cc1ccc2c(N)c(C(=O)N[C@H]3COc4c(ccc(N5CC6CCC(C5)N6)c4F)C3)sc2n1` [Example 103, 3-amino-N-[(3R)-7-{3,8-diazabicyclo[3.2.1]octan-3-yl}-8-fluoro-3,4-dihydro-2H-1-benzopyran-3-yl]-6-methylthieno[2,3-b]pyridine-2-carboxamide], which IC50 is on record?
**A.** 1 to 50 nM

**Q.** How did the IC50 turn out when `Cc1ccc2c(N)c(C(=O)N[C@H]3COc4cc(N5CC6CCC(C5)N6)c(F)cc4C3)sc2n1` [Example 104, 3-amino-N-[(3R)-7-{3,8-diazabicyclo[3.2.1]octan-3-yl]-6-fluoro-3,4-dihydro-2H-1-benzopyran-3-yl]-6-methylthieno[2,3-b]pyridine-2-carboxamide] was run?
**A.** 1 to 50 nM

**Q.** Which IC50 does the source give for `Cc1ccc2c(N)c(C(=O)N[C@H]3COc4c(ccc(N5CC6CNCC(C5)O6)c4F)C3)sc2n1` [Example 105, 3-amino-N-[(3R)-8-fluoro-7-{9-oxa-3,7-diazabicyclo[3.3.1]nonan-3-yl}-3,4-dihydro-2H-1-benzopyran-3-yl]-6-methylthieno[2,3-b]pyridine-2-carboxamide] here?
**A.** 1 to 50 nM

**Q.** For `Cc1ccc2c(N)c(C(=O)N[C@H]3COc4cc(N5CC6CNCC(C5)O6)c(F)cc4C3)sc2n1` [Example 106, 3-amino-N-[(3R)-6-fluoro-7-{9-oxa-3,7-diazabicyclo[3.3.1]nonan-3-yl}-3,4-dihydro-2H-1-benzopyran-3-yl]-6-methylthieno[2,3-b]pyridine-2-carboxamide], which IC50 is on record?
**A.** 1 to 50 nM

**Q.** For `Cc1cnc2c(N)c(C(=O)N[C@H]3COc4c(F)c(N5CC6CCC(C5)N6)cc(F)c4C3)sc2n1` [Example 107, 7-amino-N-[(3R)-7-{3,8-diazabicyclo[3.2.1]octan-3-yl}-5,8-difluoro-3,4-dihydro-2H-1-benzopyran-3-yl]-3-methylthieno[2,3-b]pyrazine-6-carboxamide], which IC50 is on record?
**A.** 1 to 50 nM

**Q.** With `Cc1nc2sc(C(=O)N[C@H]3COc4cc(N5CC6CCC(C5)N6)c(F)c(F)c4C3)c(N)c2s1` [Example 108, 6-amino-N-[(3R)-7-{3,8-diazabicyclo[3.2.1]octan-3-yl}-5,6-difluoro-3,4-dihydro-2H-1-benzopyran-3-yl]-2-methylthieno[2,3-d][1,3]thiazole-5-carboxamide] as the compound, how does the IC50 read?
**A.** 1 to 50 nM

**Q.** Which IC50 does the source give for `Cc1ccc2c(N)c(C(=O)N[C@H]3CCc4cc(N5CC6CNCC(C5)O6)c(C#N)cc4C3)sc2n1` [Example 109, 3-amino-N-[(2S)-7-cyano-6-{9-oxa-3,7-diazabicyclo[3.3.1]nonan-3-yl}-1,2,3,4-tetrahydronaphthalen-2-yl]-6-methylthieno[2,3-b]pyridine-2-carboxamide] here?
**A.** 1 to 50 nM

**Q.** `Cc1ccc2c(N)c(C(=O)N[C@H]3COc4c(F)c(N5C[C@@H]6C[C@H]5CN6)cc(F)c4C3)sc2n1` [Example 110, 3-amino-N-[(3R)-7-[(1S,4S)-2,5-diazabicyclo[2.2.1]heptan-2-yl]-5,8-difluoro-3,4-dihydro-2H-1-benzopyran-3-yl]-6-methylthieno[2,3-b]pyridine-2-carboxamide] was tested. Which IC50 did it give?
**A.** 1 to 50 nM

**Q.** `Cc1ccc2c(N)c(C(=O)N[C@H]3COc4c(F)c(N5C[C@H]6C[C@@H]5CN6)cc(F)c4C3)sc2n1` [Example 111, 3-amino-N-[(3R)-7-[(1R,4R)-2,5-diazabicyclo[2.2.1]heptan-2-yl]-5,8-difluoro-3,4-dihydro-2H-1-benzopyran-3-yl]-6-methylthieno[2,3-b]pyridine-2-carboxamide] was tested. Which IC50 did it give?
**A.** 1 to 50 nM

**Q.** For `Cc1ccc2c(N)c(C(=O)N[C@H]3COc4cc(N5C[C@@H]6C[C@H]5CN6)c(F)c(F)c4C3)sc2n1` [Example 112, 3-amino-N-[(3R)-7-[(1S,4S)-2,5-diazabicyclo[2.2.1]heptan-2-yl]-5,6-difluoro-3,4-dihydro-2H-1-benzopyran-3-yl]-6-methylthieno[2,3-b]pyridine-2-carboxamide], which IC50 is on record?
**A.** 1 to 50 nM

**Q.** For `Cc1ccc2c(N)c(C(=O)N[C@H]3COc4nc(N5CC6CNCC(C5)C6(F)F)ccc4C3)sc2n1` [Example 113, 3-amino-N-[(3R)-7-{9 9-difluoro-3,7-diazabicyclo[3.3.1]nonan-3-yl}-2H b,3H,4H-pyrano[2,3-b]pyridin-3-yl]-6-methylthieno[2,3-b]pyridine-2-carboxamide], which IC50 is on record?
**A.** 1 to 50 nM
